Measurements reported in PMC12733166, “Enhancing Cytosolic Internalization of [^177Lu]Lu–iPSMA in Prostate Cancer Cells: The Effect of Conjugating a GRP78 Inhibitor to the Radiotherapeutic Molecule” (International Journal of Molecular Sciences, 2025).
Starred links: 1 amine or outer side, 2 acyl side, 3 side chain; linkers in the order of their positions; H or OH if unused. Non-standard residues stand in square brackets, D forms with d. Residues, ends and D or L forms follow the SMILES beside them. *: point of attachment. X2 = O=C(O)CC[C@@H](NC(=O)N[C@H](CCCCNC(=O)[C@H](Cc1ccc2ccccc2c1)NC(=O)CCCN1C(=O)C[C@@H](*)C1=O)C(=O)O)C(=O)O; DOTA = O=C(O)CN1CCN(CC(=O)O)CCN(CC(=O)*)CCN(CC(=O)O)CC1; X1 = O=C(c1ccc(NN[*:1])nc1)[*:2]

Legend:
[1] = tested on: LNCaP cells (PSMA+, CS-GRP78+); assay: Saturation binding assay on LNCaP cells; design: species or system human; conditions: 1-100 nM radioligand, 4 °C, 2 h, non-specific binding with 1 μM PMPA, n = 3 from two independent experiments; for Kd: GraphPad Prism, read-out: Dissociation constant (Kd)
Experimental: (§1) PC-3 (CRL-1435; ATCC, Manassas, VA, USA) and LNCaP human prostate cancer cells (CRL-1740; ATCC, USA) were cultured in Roswell Park Memorial Institute medium (RPMI; Sigma-Aldrich, USA) at 37 °C, 85% humidity, 5% CO2, and 10% fetal bovine serum.
The affinity comparison between the [^177Lu]Lu–iPSMA–iGRP78 dimer and [^177Lu]Lu–iPSMA monomer was performed in LNCaP cells. For the saturation binding analysis, cells were seeded on 96-well plate cultures ([…]) and incubated at 37 °C under a CO2 atmosphere for 24 h, then the plates were placed on ice for 30 min. Next, they were incubated at 4 °C for 2 h with increasing concentrations (from 1nM to 100 nM) of the monomer [^177Lu]^natLu-iPSMA or the dimer [^177Lu]^natLu-iPSMA-iGRP78. Finally, cells were washed with PBS followed by the addition of 1M NaOH for cell lysis. This solution was measured for radioactivity using a NaI(Tl) gamma counter (NML Inc., Littleton, CO, USA). Non-specific binding of [^177Lu]Lu–iPSMA–iGRP78 and [^177Lu]Lu–iPSMA was determined under the same experimental conditions described above but in the presence of PMPA (2-(phosphonomethyl) pentanedioic acid) at a final concentration of 1 μM. The dissociation constant (Kd) and maximum number of binding sites (Bmax) were calculated by a lineal regression analysis with data (n = 3) from two independent experiments using the GraphPad Prism software (v. 10.6.1).

[2] = tested on: LNCaP cells (PSMA+, CS-GRP78+); assay: Cytosolic and nuclear internalization (subcellular fractionation) in LNCaP cells; format: cell-based, human; conditions: LNCaP cells 1 × 10^5/200 µL, 37 kBq/4 nmol, 1 h, 37 °C; for Cytosolic internalization: gamma counting of cytosolic fraction; for Nuclear internalization: gamma counting of nuclear extract
Experimental: as §1
(§2) Assays were performed to evaluate the cellular uptake and subcellular distribution of [^177Lu]Lu–iPSMA–iGRP78 and the control monomers [^177Lu]Lu–iPSMA and [^177Lu]Lu–iGRP78 in two prostate cancer cell lines: LNCaP (PSMA+, SC-GRP78+) and PC3 (PSMA^−, CS-GRP78^−). Cells (1 × 10^5/200 µL) were incubated with the radiopharmaceutical (37 kBq/4 nmol) for 1 h at 37 °C to assess the distribution between the cytoplasm and nucleus.
Following incubation, tubes were measured with a NaI(Tl) crystal scintillation gamma-counter (NML Inc., TX, USA) to determine 100% of the initial activity. The tubes were centrifuged at 250× g for 5 min, and the supernatant was withdrawn. The activity in the pellet was measured to determine the percentage of cellular uptake (surface uptake) relative to the initial activity. Next, the nuclei and cytoplasm of the cells were separated using a Nuclear Extraction Kit (Chemicon International, Inc., Temecula, CA, USA). To prepare for fractionation, the cells were first washed with 1 mL of 0.2 M acetic acid/0.5 M NaCl. The tubes were centrifuged at 250× g for 5 min, washed with phosphate-buffered saline (PBS), and then centrifuged again to ensure thorough removal of extracellular components.
(§3) After centrifugation, the cell pellet, which corresponds to the internalized activity, was quantified using a gamma counter. The radioactivity measured in the pellet was defined as 100% of the internalized activity.
The pellet was resuspended in cytoplasmic lysis buffer with dithiothreitol and a protease inhibitor cocktail to maintain protein stability during lysis. Mechanical disruption was performed by passing the suspension through a 27-gauge needle multiple times using a syringe to ensure complete cell breakdown. The resulting lysate underwent centrifugation at 8000× g for 20 min at 4 °C. The supernatant, representing the cytosolic fraction, was collected and analyzed for radioactivity via gamma counting.
The remaining pellet, containing the nuclear fraction, was resuspended in nuclear extraction buffer supplemented with dithiothreitol and a protease inhibitor cocktail. Nuclear disruption was carried out before centrifuging at 16,000× g for 5 min at 4 °C. The supernatant contained the nuclear extract, while the membrane components remained in the pellet.
(§4) Radioactivity measurements were conducted on both the nuclear extract and the membrane pellet fractions using a gamma counter. The percentage of activity within each subcellular compartment was calculated for each time point, allowing for evaluation of the distribution of [^177Lu]Lu–iPSMA–iGRP78 and control monomers [^177Lu]Lu–iPSMA and [^177Lu]Lu–iGRP78 between the cytoplasmic and nuclear compartments of prostate cancer cells over time.

[3] = tested on: PC3 cells (PSMA−, CS-GRP78−); assay: Cytosolic and nuclear internalization (subcellular fractionation) in PC3 cells; format: cell-based, human; conditions: PC3 cells 1 × 10^5/200 µL, 37 kBq/4 nmol, 1 h, 37 °C
Experimental: as §1, §2
Following incubation, tubes were measured with a NaI(Tl) crystal scintillation gamma-counter (NML Inc., TX, USA) to determine 100% of the initial activity. The tubes were centrifuged at 250× g for 5 min, and the supernatant was withdrawn. The activity in the pellet was measured to determine the percentage of cellular uptake (surface uptake) relative to the initial activity. […]
as §3
The pellet was resuspended in cytoplasmic lysis buffer with dithiothreitol and a protease inhibitor cocktail to maintain protein stability during lysis. […] The supernatant, representing the cytosolic fraction, was collected and analyzed for radioactivity via gamma counting. […]
as §4

[4] = tested on: LNCaP cells; assay: Cytotoxicity / cell viability by flow cytometry (Muse Count & Viability kit); format: cell-based, human; conditions: LNCaP 5 × 10^4 cells/200 µL, 1.4 MBq, 5 h (15 Gy/h whole-cell dose); triplicate (n = 3) from two independent experiments, mean ± SD
Experimental: The effects of radioligands on LNCaP cell viability were evaluated using advanced flow cytometry techniques. The radioligands tested were [^177Lu]Lu–iPSMA–iGRP78, [^177Lu]Lu–iPSMA, and [^177Lu]Lu–iGRP78. This evaluation was conducted to assess their impact on the survival of prostate cancer cells. Cell viability was measured using the Count & Viability kit (Muse®). Prior to analysis, the Muse® cell analyzer (Merck Millipore, Burlington, MA, USA) was calibrated with the verification kit to ensure its accuracy. First, a fresh, untreated LNCaP cell sample was analyzed to establish reference parameters, including cell size, granularity, and natural cell viability. To accurately distinguish between live and dead cells, an aliquot of the same cell population was treated with 0.05% Triton X-100. This treatment defined the dead cell detection window in the analyzer. Next, a specific detection window was established for LNCaP cells to differentiate between viable and non-viable cells during analysis accurately. For each experimental group, a cell suspension containing 5 × 10^4 cells in 200 µL was prepared. The cells were then treated as follows: 1.4 MBq of (a) [^177Lu]Lu–iPSMA–iGRP78, (b) [^177Lu]Lu–iPSMA, (c) [^177Lu]Lu–iGRP78, and (d) untreated. After five hours of treatment (15 Gy/h at whole-cell dose), the cells were mixed with 450 µL of viability reagent and incubated for 5 min at room temperature in the dark. All measurements were performed in triplicate (n = 3) from two independent experiments to ensure reliability and reproducibility. To determine the radiation absorbed dose rate to the whole cell (15 Gy/h), the total number of nuclear transformations (N) was calculated. This value was normalized to the administered activity unit (MBq·s/MBq) by integrating the activity (A(t)) from time zero to five hours. Next, the absorbed dose was calculated by multiplying N by the dose factor (DF: from cell to cell) (Gy/Bq·s), as determined by MIRDcell software, considering the crossfire absorbed dose (version 2.1).

[5] = Stability in PBS (radiochemical purity by radio-HPLC); format: physicochemical; conditions: 10 µL (18.5 MBq) in 1 mL PBS, 3 h, 37 °C; reverse-phase radio-HPLC; n = 3
Experimental: The quality control assessed bacterial endotoxins, sterility, pH, and appearance, following the general methods of the Mexican Pharmacopeia. Radiochemical purity was evaluated by reversed-phase radio-high-performance liquid chromatography (radioHPLC) ( LC-40DxR, Shimadzu, Kyoto, Japan). A shim-pack GIST C18 column (Shimadzu: 4.6 mm × 25 cm, 5 μm particle size) with a linear gradient from 100% to 10% of mobile phase A (0.1% TFA aqueous solution) and from 0% to 90% of phase B (0.1% TFA in acetonitrile) in 20 min at 1 mL/min. The retention time of [^177Lu]Lu–iPSMA–iGRP78 was 17.4 ± 0.3 min, and 3.7 ± 0.2 min for ^177LuCl3. Radiochemical purities of [^177Lu]Lu–iPSMA (tR = 15.2 ± 0.2 min) and [^177Lu]Lu–iGRP78 (tR = 19.2 ± 0.4 min) were also verified to be higher than 95%.
To assess the in vitro stability of [^177Lu]Lu-iPSMA-iGRP78, 10 µL (18.5 MBq) of the radiopharmaceutical was diluted in either 1 mL of PBS or 1 mL of human serum (NIST-909c certified human serum sample; Sigma-Aldrich, St. Louis, MO, USA) (n = 3). The mixtures were incubated for 3 h at 37 °C. Then, 0.5 mL of acetonitrile was added to the human serum samples to precipitate the proteins, and the mixtures were centrifuged at 500× g for 10 min. The radiochemical purity of the human serum supernatants and PBS solution samples was analyzed by reverse-phase radio-HPLC, as described above.

Row | Compound | Maximum number of binding sites (Bmax) [1] | Kd [1] | Cytosolic internalization [2] | Nuclear internalization [2] | Uptake in cellular cytosol and nucleus [3] | Dead cells [4] | Radiochemical purity, unchanged after incubation in PBS [5]
1 | O=C(O)CC[C@@H](NC(=O)N[C@H](CCCCNC(=O)[C@H](Cc1ccc2ccccc2c1)NC(=O)c1ccc(NNC(=O)CN2CCN(CC(=O)O)CCN(CC(=O)O)CCN(CC(=O)O)CC2)nc1)C(=O)O)C(=O)O [[^177Lu]Lu–iPSMA, metal not drawn] | 0.032 nM | 2.25 nM | 6.45 ± 0.60% | no uptake in the cell nucleus | low uptake | 38.63 ± 6.13% | exceeding 97%
2 | CC[C@@H](C)[C@@H](NC(=O)[C@@H](Cc1c[nH]c2ccccc12)NC(=O)[C@H]1CCCN1C(=O)[C@@H](Cc1ccccc1)NC(=O)[C@H](NC(=O)[C@@H](Cc1c[nH]c2ccccc12)NC(=O)[C@@H](CS)NC(=O)c1ccc(NNC(=O)CN2CCN(CC(=O)O)CCN(CC(=O)O)CCN(CC(=O)O)CC2)nc1)[C@H](C)CC)C(=O)N[C@H](CCC(N)=O)C(=O)N[C@H](CC(C)C)C(=O)O [[^177Lu]Lu–iGRP78, metal not drawn] ({DOTA}-[X1][dC][dW][dI][dF][dP][dW][dI][dQ][dL]-OH) |  |  | highest internalization values | highest internalization values | low uptake | 68.93 ± 5.05% | exceeding 97%
3 | CC[C@@H](C)[C@@H](NC(=O)[C@@H](Cc1c[nH]c2ccccc12)NC(=O)[C@H]1CCCN1C(=O)[C@@H](Cc1ccccc1)NC(=O)[C@H](NC(=O)[C@@H](Cc1c[nH]c2ccccc12)NC(=O)[C@@H](CS[C@@H]1CC(=O)N(CCCC(=O)N[C@@H](Cc2ccc3ccccc3c2)C(=O)NCCCC[C@@H](NC(=O)N[C@H](CCC(=O)O)C(=O)O)C(=O)O)C1=O)NC(=O)c1ccc(NNC(=O)CN2CCN(CC(=O)O)CCN(CC(=O)O)CCN(CC(=O)O)CC2)nc1)[C@H](C)CC)C(=O)N[C@H](CCC(N)=O)C(=O)N[C@H](CC(C)C)C(=O)O [[^177Lu]Lu–iPSMA–iGRP78, metal not drawn] ({DOTA}-[X1][dC](X2)[dW][dI][dF][dP][dW][dI][dQ][dL]-OH) | 0.048 nM | 1.88 nM | 10.44 ± 2.43% | 4.81 ± 0.94% | low uptake | 69.93 ± 4.85% | exceeding 97%
